Key:
[1] = Dynamic vapor sorption (DVS) analysis; assay type: physicochemical
physchem = conditions: 25 °C, water, thermodynamic from solid
Procedure: About 5 mg of crystalline Form E was weighed in 2 mL glass vials. 20 μL aliquots of each solvent were added to dissolve the compound at 25° C. Vortex and sonication were applied to assist dissolution. The maximum volume of each solvent added was 1 mL.

[2] = between about 0 to about 90% relative humidity (RH) at 25° C.

SMILES | DVS total mass change [1, 2] | other results
O=C(N[C@@H]1CCCC[C@H]1O)c1cnc(OCC(F)(F)F)c(-c2ccc(Cl)c(Cl)c2)c1 [Form I, 5-(3,4-dichlorophenyl)-N-((1R,2R)-2-hydroxycyclohexyl)-6-(2,2,2-trifluoroethoxy)nicotinamide] | about 10 wt. % | 
O=C(N[C@@H]1CCCC[C@H]1O)c1cnc(OCC(F)(F)F)c(-c2ccc(Cl)c(Cl)c2)c1 [Form D, 5-(3,4-dichlorophenyl)-N-((1R,2R)-2-hydroxycyclohexyl)-6-(2,2,2-trifluoroethoxy)nicotinamide] | about 20 wt. % | 
O=C(N[C@@H]1CCCC[C@H]1O)c1cnc(OCC(F)(F)F)c(-c2ccc(Cl)c(Cl)c2)c1 [Form E, 5-(3,4-dichlorophenyl)-N-((1R,2R)-2-hydroxycyclohexyl)-6-(2,2,2-trifluoroethoxy)nicotinamide] | about 0.3 wt. % | solubility (physchem): < 5000 µg/mL
O=C(N[C@@H]1CCCC[C@H]1O)c1cnc(OCC(F)(F)F)c(-c2ccc(Cl)c(Cl)c2)c1 [Form H, 5-(3,4-dichlorophenyl)-N-((1R,2R)-2-hydroxycyclohexyl)-6-(2,2,2-trifluoroethoxy)nicotinamide] |  | DVS total mass change ([1]; between about 0 to about 70% relative humidity (RH) at 25° C.): about 2.5 wt. %; DVS total mass change ([1]; between about 70 to about 90% relative humidity (RH) at 25° C.): about 25 wt. %
O=C(N[C@@H]1CCCC[C@H]1O)c1cnc(OCC(F)(F)F)c(-c2ccc(Cl)c(Cl)c2)c1 [Form B, 5-(3,4-dichlorophenyl)-N-((1R,2R)-2-hydroxycyclohexyl)-6-(2,2,2-trifluoroethoxy)nicotinamide] | about 0.3 wt. % | 
O=C(N[C@@H]1CCCC[C@H]1O)c1cnc(OCC(F)(F)F)c(-c2ccc(Cl)c(Cl)c2)c1 [Form A, 5-(3,4-dichlorophenyl)-N-((1R,2R)-2-hydroxycyclohexyl)-6-(2,2,2-trifluoroethoxy)nicotinamide] | about 1.8 wt. % | 
O=C(N[C@@H]1CCCC[C@H]1O)c1cnc(OCC(F)(F)F)c(-c2ccc(Cl)c(Cl)c2)c1 [Form 2, 5-(3,4-dichlorophenyl)-N-((1R,2R)-2-hydroxycyclohexyl)-6-(2,2,2-trifluoroethoxy)nicotinamide] | about 2.1 wt. % | 
